Data on 3 substances can be found in patent US20060134719A1, “Novel serine protease” (priority 2002, published 2006).

*: point of attachment. AMC = Cc1cc(=O)oc2cc(N*)ccc12; Boc = CC(C)(C)OC(=O)*; OBn = c1ccc(CO*)cc1

The test system of test [1] is ARS-FLAG culture supernatant (recombinant ARS protein, SEQ ID NO:2 1st to 531st). Kind of test: Enzymatic cleavage of MCA-labeled synthetic peptides by ARS-FLAG culture supernatant. Format: biochemical, human. The note with it: substrate 100 μM in TBS pH 7.5, 37° C.; never obtained with blank vector supernatant. The protocol:
(§1) The expression plasmids prepared in Examples 3 to 5 were introduced into HEK293-EBNA cell (Invitrogen) using a transfection reagent (FuGENE™6 transfection reagent; Roche) according to the instruction attached thereto. After the introduction of the plasmids, the culture medium was replaced with a serum-free culture medium within 12 to 16 hours and further incubated for another 48 to 60 hours. The culture supernatant was collected and resulting each liquid culture was centrifuged (3000 rpm, 10 minutes) with a centrifuge (Type 8800; Kubota) to obtain culture supernatants. After removing the culture supernatants, the remaining cells were washed with phosphate buffer (PBS; 10 mM sodium phosphate, pH 7.5) and then recovered by scraping from the culture plate by pipetting with phosphate buffer, and centrifuged with a centrifuge (Type 8800; Kubota) at 3000 rpm for 10 minutes. The resulting precipitate was suspended in phosphate buffer, which was defined as the cell fraction. The culture supernatants obtained by the introduction of pCEP-ARSF-FLAG, pCEP-signal-FLAG-ARS-extracellular and pCEP-signal-FLAG-ARS-SerPD are referred to as ARS-FLAG culture supernatant, signal-FLAG-ARS-extracellular culture supernatant, signal-FLAG-ARS-SerPD culture supernatant and signal-FLAG-ARS-SerPDO culture supernatant, respectively.
(§2) The method for detecting enzymatic cleavage activity using a synthetic peptide labeled with MCA (4-methyl-coumaryl-7-amide) in the C terminus was according to the method reported in an academic paper (Yasuoka, S. et al., Am. J. Respir. Cell Mol Biol., Vol. 16, 300-308, 1997), unless otherwise described. […] Subsequently, the fluorescence of AMC (7-amino-4-methyl-coumarin) released from the synthetic peptide by enzymatic cleavage was measured at a wavelength of 460 nm for measurement, using an excitation wavelength of 390 nm with a fluorescent plate reader (Fluostar, SLT).

Test [2] deals with T1, signal-FLAG-ARS-extracellular culture supernatant (SEQ ID NO:2 51st to 531st) (Homo sapiens, UniProt Q7Z410, INS90FVSSFQKTELEASCVGCSVLNYRDGNSSVLVHFQ).
T1 construct: made in house; host or cells: HEK293-EBNA
T1 sequence (Q7Z410 with tags, fused parts or gaps): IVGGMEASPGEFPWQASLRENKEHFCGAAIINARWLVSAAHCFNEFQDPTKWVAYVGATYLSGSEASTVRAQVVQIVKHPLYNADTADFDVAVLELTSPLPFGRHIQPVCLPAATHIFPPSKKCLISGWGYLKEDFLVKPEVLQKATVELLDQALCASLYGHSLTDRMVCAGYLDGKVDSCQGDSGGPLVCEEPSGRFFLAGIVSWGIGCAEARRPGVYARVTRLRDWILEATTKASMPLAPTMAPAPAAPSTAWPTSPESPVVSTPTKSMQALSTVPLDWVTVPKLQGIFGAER
T1 sequence (Q7Z410 with tags, fused parts or gaps INS90FVSSFQKTELEASCVGCSVLNYRDGNSSVLVHFQ): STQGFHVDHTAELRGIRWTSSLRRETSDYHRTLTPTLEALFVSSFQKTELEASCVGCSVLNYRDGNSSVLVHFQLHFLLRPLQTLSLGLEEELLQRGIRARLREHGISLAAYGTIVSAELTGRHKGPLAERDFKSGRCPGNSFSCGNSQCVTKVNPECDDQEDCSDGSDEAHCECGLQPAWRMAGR
Put plainly: Enzymatic cleavage of MCA-labeled synthetic peptides by signal-FLAG-ARS-extracellular culture supernatant. The settings on record: substrate 100 μM in TBS pH 7.5, 37° C.; never obtained with blank vector supernatant. It is filed as biochemical. On the procedure:
as §1, §2

For test [3], the target named is T2, signal-FLAG-ARS-SerPD culture supernatant (SEQ ID NO:2 237th to 531st) (Homo sapiens, UniProt Q7Z410).
T2 construct: made in house; host or cells: HEK293-EBNA
T2 sequence (Q7Z410 with tags, fused parts or gaps): T1 sequence (Q7Z410 with tags, fused parts or gaps)
Put plainly: Enzymatic cleavage of MCA-labeled synthetic peptides by signal-FLAG-ARS-SerPD culture supernatant. It is filed as biochemical. The note with it: substrate 100 μM in TBS pH 7.5, 37° C.; never obtained with blank vector supernatant. The protocol:
as §1, §2

The target in test [4] is T3, enzyme solution treated with trypsin beads (purified signal-FLAG-ARS-extracellular protein) (Homo sapiens, UniProt Q7Z410, INS90FVSSFQKTELEASCVGCSVLNYRDGNSSVLVHFQ).
T3 construct: FLAG (N); made in house; host or cells: HEK293-EBNA
T3 sequence (Q7Z410 with tags, fused parts or gaps): T1 sequence (Q7Z410 with tags, fused parts or gaps)
T3 sequence (Q7Z410 with tags, fused parts or gaps INS90FVSSFQKTELEASCVGCSVLNYRDGNSSVLVHFQ): T1 sequence (Q7Z410 with tags, fused parts or gaps INS90FVSSFQKTELEASCVGCSVLNYRDGNSSVLVHFQ)
Kind of test: Substrate cleavage activity of purified protein solution treated with trypsin beads. It is filed as biochemical. The settings on record: substrate 400 μM, ammonium hydrogen carbonate buffer, 37° C. for one hour. On the procedure: By the same method as in Example 9, an enzyme solution treated with trypsin beads was obtained, using the purified protein solution. Then, the substrate cleavage activity of the enzyme solution was measured by the same method as in Example 8. Specifically, synthetic peptide substrates were diluted in ammonium hydrogen carbonate buffer to become a final concentration of 400 μM in a 96-well plate. After the enzyme solution described above was mixed into the resulting diluted substrates, the mixture were incubated at 37° C. for one hour. Subsequently, the fluorescence of AMC released from the synthetic peptide by enzymatic cleavage were measured.

In the case of Boc-Gln-Arg-Arg-{AMC}, the “cleavage activity of synthetic peptide (fluorescence of released AMC)” value (from here on “cleavage activity of synthetic peptide”) in test [1], in test [2] and in test [3] was “showed the cleavage activity” in each case. The “cleavage of synthetic peptide by enzyme solution treated with trypsin beads (fluorescence of released AMC)” value (“cleavage of synthetic peptide” for short) in test [4] is on record as “cleaved”.

Regarding Boc-Phe-Ser-Arg-{AMC}, the “cleavage activity of synthetic peptide” value in test [1], in test [2] and in test [3] was “showed the cleavage activity” in each case. Besides, in test [4], the “cleavage of synthetic peptide” value is on record as “cleaved”.

Turning to Boc-Glu(OBn)-Ala-Arg-{AMC}, the “cleavage activity of synthetic peptide” value in test [1], in test [2] and in test [3] was “showed the cleavage activity” throughout. For the same substance, the “cleavage of synthetic peptide” value in test [4] is reported as “cleaved”.
